Measurements taken from ChEMBL document CHEMBL1857833, “Screening and optimization of specific chemical series against human African Trypanosomiasis (HAT)”.
In brackets after ≈: the same amount, converted by molar mass. Several values for one entry are separate records, joined by “and”; a condition that tells them apart may be missing. Equal values may be shown once.

System: Trypanosoma brucei
Test: DNDI: Inhibition of Human African Trypanosomiasis, SBRI 427, in vitro
Format: functional, organism-based
Conditions: not given

| Structure (SMILES) | IC50 |
| --- | --- |
| CCOc1ccccc1-c1nc(CNC2CCCCCCCCCCC2)co1 | 1.37 µg/mL (≈ 3.56 µM) |
| CCOc1ccc(-c2nc(CNC(C)C3CCCCC3)co2)cc1 (stereo unspecified) | 1.96 µg/mL (≈ 5.97 µM) |
| CC(C)(C)c1ccc(-c2nc(CNCC3CC3)co2)cc1 | 1.69 µg/mL (≈ 5.94 µM) |
| CN(Cc1coc(-c2cccc3ccccc23)n1)C1CCCCC1 | 1.3 µg/mL (≈ 4.06 µM) |
| CCN(CCN(C)C)Cc1coc(-c2ccc(C(C)(C)C)cc2)n1 | 1.87 µg/mL (≈ 5.68 µM) |
| CCC1CCCCN1Cc1coc(-c2cccc3ccccc23)n1 (stereo unspecified) | 1.83 µg/mL (≈ 5.71 µM) |
| CC(NCc1coc(-c2cccc3ccccc23)n1)C1CCCCC1 (stereo unspecified) | 1.7 µg/mL (≈ 5.08 µM) |
| CC(C)(C)CNCc1coc(-c2ccc(C(C)(C)C)cc2)n1 | 2.86 µg/mL (≈ 9.52 µM) |
| CCOc1cccc(-c2nc(CNCCC3CCCN3C)co2)c1 (stereo unspecified) | 1.78 µg/mL and 4.05 µg/mL |
| C[C@@H]1C(NCc2coc(-c3ccccc3Br)n2)C[C@H]2C[C@@H]1C2(C)C (stereo partly specified) | 1.95 µg/mL (≈ 5.01 µM) |

Same assay, conditions: Trypanosoma brucei, SBRI 427; read-out: IC50

| Structure (SMILES) | IC50 |
| --- | --- |
| CCOc1ccc(-c2nc(Cn3nc(N)cc3C)co2)cc1 | 2.11 µg/mL (≈ 7.07 µM) |
| CSc1ccc(Oc2ccc(/C(=N/O)NCc3ccccc3F)cn2)cc1 | 1.6 µg/mL (≈ 4.17 µM) |
| O/N=C(\Nc1ccccc1)c1cccnc1OCc1ccccc1 | 1.26 µg/mL (≈ 3.95 µM) |
| CCOc1ccccc1-c1nc(CNC2CCCCCCCCCCC2)co1 | 1.51 µg/mL (≈ 3.93 µM) |
| COc1ccc(Oc2ncccc2/C(=N/O)NC2CCc3ccccc32)cc1 (stereo unspecified) | 1.51 µg/mL (≈ 4.02 µM) |
| CC1CCC(N/C(=N\O)c2ccc(Oc3ccc(Cl)cc3)nc2)CC1 (stereo unspecified) | 1.42 µg/mL (≈ 3.95 µM) |
| CC(C)COc1ncccc1/C(=N/O)NC1CCC(C)CC1 (stereo unspecified) | 2.25 µg/mL (≈ 7.37 µM) |
| COc1ccc(Oc2ncccc2/C(=N/O)NCc2ccccc2C)cc1 | 2.36 µg/mL (≈ 6.49 µM) |
| CCC(CC)N/C(=N\O)c1ccc(C)nc1Oc1cccc(F)c1 | 1.56 µg/mL (≈ 4.71 µM) |
| COc1ccc(-c2nc(CNC3CCN(Cc4ccccc4)CC3)co2)cc1 | 2.92 µg/mL (≈ 7.74 µM) |
| CC(C)COc1ncccc1/C(=N/O)NC1CCCCC1 | 2.18 µg/mL (≈ 7.48 µM) |
| CCOc1ccc(-c2nc(CNC(C)C3CCCCC3)co2)cc1 (stereo unspecified) | 1.44 µg/mL (≈ 4.38 µM) |
| COc1cccc(Oc2ccc(/C(=N/O)NC3CCCCC3)cn2)c1 | 1.23 µg/mL (≈ 3.6 µM) |
| COc1ccc(Oc2ncccc2/C(=N/O)NCc2ccccc2OC)cc1 | 2.37 µg/mL (≈ 6.25 µM) |
| Cc1ccc(/C(=N/O)N2CCCc3ccccc32)c(Oc2cccc(F)c2)n1 | 2.54 µg/mL (≈ 6.73 µM) |
| O/N=C(/c1ccc(Oc2ccc(Cl)cc2)nc1)N1CCC2CCCCC2C1 (stereo unspecified) | 1.24 µg/mL (≈ 3.21 µM) |
| CCOc1ccccc1CN/C(=N\O)c1cccnc1Oc1ccc(OC)cc1 | 1.44 µg/mL (≈ 3.66 µM) |
| Cc1cccc(Oc2nc(C)ccc2/C(=N/O)NCC(C)C)c1 | 1.67 µg/mL (≈ 5.33 µM) |
| Cc1ccc(/C(=N/O)NCc2ccccc2F)c(Oc2cc(Cl)ccc2Cl)n1 | > 5 µg/mL |
| CCOc1ccccc1CN/C(=N\O)c1ccc(C)nc1Oc1ccc(C)cc1C | 2.99 µg/mL (≈ 7.37 µM) |
| O/N=C(\NCc1c(F)cccc1F)c1cccnc1Oc1ccccc1 | 1.58 µg/mL (≈ 4.45 µM) |
| CC(C)(C)c1ccc(-c2nc(CNCC3CC3)co2)cc1 | 1.22 µg/mL (≈ 4.29 µM) |
| C[C@@H]1C(NCc2coc(-c3cccc4ccccc34)n2)C[C@H]2C[C@@H]1C2(C)C (stereo partly specified) | 0.94 µg/mL (≈ 2.61 µM) |
| COc1ccccc1CN/C(=N\O)c1ccc(C)nc1Oc1cc(Cl)ccc1Cl | 3.98 µg/mL (≈ 9.21 µM) |

| Structure (SMILES) | IC50 |
| --- | --- |
| CC(C)c1cccc(Oc2ccc(/C(=N/O)NCc3ccncc3)cn2)c1 | 2.64 µg/mL (≈ 7.28 µM) |
| Cc1ccc(/C(=N/O)NC2CC(C)CC(C)(C)C2)c(OCC(C)C)n1 (stereo unspecified) | 1.77 µg/mL (≈ 5.09 µM) |
| Cc1ccc(/C(=N/O)NC2CCCC2)c(Oc2cc(Cl)ccc2Cl)n1 | 0.4 µg/mL (≈ 1.05 µM) |
| CC(C)COc1ncccc1/C(=N/O)NC1CCC1 | 1.41 µg/mL (≈ 5.35 µM) |
| CC(C)c1cccc(Oc2ccc(/C(=N/O)N(C)Cc3cccnc3)cn2)c1 | 2.5 µg/mL (≈ 6.64 µM) |
| CSc1ccc(Oc2ccc(/C(=N/O)NC3CCC(C)CC3)cn2)cc1 (stereo unspecified) | 1.35 µg/mL (≈ 3.63 µM) |
| O/N=C(\NCc1cccs1)c1ccc(Oc2cccc(F)c2)nc1 | 1.93 µg/mL (≈ 5.62 µM) |
| Cc1ccc(CN/C(=N\O)c2cccnc2Oc2cc(Cl)ccc2Cl)o1 | 1.67 µg/mL (≈ 4.26 µM) |
| CCC(CC)N/C(=N\O)c1ccc(Oc2cc(Cl)ccc2Cl)nc1 | 1.35 µg/mL (≈ 3.67 µM) |
| Cc1ccc([C@@H](C)NCc2coc(-c3cccc4ccccc34)n2)cc1 | 1.86 µg/mL (≈ 5.43 µM) |
| CCC(CC)N/C(=N\O)c1ccc(C)nc1Oc1ccc(F)c(Cl)c1 | > 5 µg/mL |
| CC1(C)[C@H]2CC[C@@H](CNCc3coc(-c4ccc(F)cc4)n3)[C@@H]1C2 | > 5 µg/mL |
| CN(Cc1coc(-c2cccc3ccccc23)n1)C1CCCCC1 | 2.01 µg/mL (≈ 6.27 µM) |
| Cc1ccc(Oc2ncccc2/C(=N/O)NCc2ccccc2)c2c1CCC2 | 1.28 µg/mL (≈ 3.43 µM) |
| O/N=C(\NCC1CCCCC1)c1ccc(Oc2ccc(Cl)cc2)nc1 | 1.6 µg/mL (≈ 4.45 µM) |
| CC(C)N/C(=N\O)c1cccnc1OCC(C)(C)C | 0.9 µg/mL (≈ 3.39 µM) |
| CCC(CC)N/C(=N\O)c1cccnc1OCc1ccccc1 | 0.51 µg/mL (≈ 1.63 µM) |
| CCN(CCN(C)C)Cc1coc(-c2ccc(C(C)(C)C)cc2)n1 | 3.09 µg/mL (≈ 9.38 µM) |
| COc1ccc(-c2nc(CNCCCN3CCCCC3C)co2)cc1 (stereo unspecified) | > 5 µg/mL |
| Cc1ccc(-c2nc(Cn3nc(N)cc3C)co2)cc1 | > 5 µg/mL |
| Cc1cccc(Oc2nc(C)ccc2/C(=N/O)NCC(C)(C)C)c1 | 0.32 µg/mL (≈ 0.977 µM) |
| COc1cccc(Oc2ccc(/C(=N/O)NCC3CCCCC3)cn2)c1 | 2.15 µg/mL (≈ 6.05 µM) |
| Cc1ccc(Oc2cc(/C(=N/O)NCC(C)(C)C)ccn2)c(C)c1 | 0.36 µg/mL (≈ 1.1 µM) |
| CCOc1ccccc1CN/C(=N\O)c1cccnc1Oc1ccc(Cl)cc1 | 2.13 µg/mL (≈ 5.35 µM) |

| Structure (SMILES) | IC50 |
| --- | --- |
| C=CCc1ccc(Oc2ccc(/C(=N/O)NCc3ccncc3)cn2)c(OC)c1 | 2.1 µg/mL (≈ 5.38 µM) |
| Cc1ccc(-c2nc(CN(Cc3ccccn3)Cc3ccccn3)co2)cc1 | > 5 µg/mL |
| Cc1ccccc1CN/C(=N\O)c1cccnc1Oc1cccc(C)c1C | 3.57 µg/mL (≈ 9.88 µM) |
| O/N=C(\NCC1CC1)c1cccnc1OCc1ccccc1 | 0.61 µg/mL (≈ 2.05 µM) |
| O/N=C(\NCC1CCCCC1)c1ccc(Oc2cc(Cl)ccc2Cl)nc1 | 2.81 µg/mL (≈ 7.13 µM) |
| CC1CCc2ccccc2N1/C(=N\O)c1cccnc1OCC(C)(C)C (stereo unspecified) | 0.66 µg/mL (≈ 1.87 µM) |
| Cc1cc(C)cc(CN/C(=N\O)c2cccnc2OCC(C)C)c1 | 1.94 µg/mL (≈ 5.92 µM) |
| CCC(CC)N/C(=N\O)c1ccc(Oc2ccc(Cl)cc2)nc1 | 1.63 µg/mL (≈ 4.88 µM) |
| CCC1CCCCN1Cc1coc(-c2cccc3ccccc23)n1 (stereo unspecified) | 2.13 µg/mL (≈ 6.65 µM) |
| Clc1ccc(-c2nc(CNCCCn3ccnc3)co2)c(Cl)c1 | 2.02 µg/mL (≈ 5.75 µM) |
| COc1cc(C)ccc1Oc1nc(C)ccc1/C(=N/O)NCc1ccccc1 | 0.77 µg/mL (≈ 2.04 µM) |
| Cc1ccc(/C(=N/O)NCC(C)C)c(Oc2cccc(F)c2)n1 | 1.37 µg/mL (≈ 4.32 µM) |
| CC(NCc1coc(-c2cccc3ccccc23)n1)C1CCCCC1 (stereo unspecified) | 1.34 µg/mL (≈ 4.01 µM) |
| Cc1ccc(/C(=N/O)N(C)c2ccccc2)c(Oc2cccc(F)c2)n1 | 1.34 µg/mL (≈ 3.81 µM) |
| CCC(CC)N/C(=N\O)c1ccc(C)nc1Oc1cc(Cl)ccc1Cl | 3.35 µg/mL (≈ 8.76 µM) |
| CCN(CC)CCCC(C)NCc1coc(-c2ccccc2Cl)n1 (stereo unspecified) | > 5 µg/mL |
| c1ccc2c(-c3nc(CNCCCN4CCCC4)co3)cccc2c1 | 0.62 µg/mL (≈ 1.85 µM) |
| Cc1ccc(/C(=N/O)NCC(C)(C)C)c(OCc2cccc(F)c2)n1 | 2.11 µg/mL (≈ 6.11 µM) |
| COc1ccc(Oc2ncccc2/C(=N/O)NCC2CCCCC2)cc1 | 1.96 µg/mL (≈ 5.51 µM) |
| Cc1ccc(/C(=N/O)NCc2cc(F)cc(F)c2)c(Oc2cc(Cl)ccc2Cl)n1 | 2.52 µg/mL (≈ 5.75 µM) |
| COc1cccc(Oc2ccc(/C(=N/O)NC3CCC(C)CC3)cn2)c1 (stereo unspecified) | 1.97 µg/mL (≈ 5.54 µM) |
| CC1CCCCN1CCCNCc1coc(-c2cccc3ccccc23)n1 (stereo unspecified) | 2.07 µg/mL (≈ 5.69 µM) |
| C[C@H]1C(NCc2coc(-c3cccc4ccccc34)n2)C[C@@H]2C[C@H]1C2(C)C (stereo partly specified) | 0.9 µg/mL (≈ 2.5 µM) |
| O/N=C(\NC1CCC1)c1cccnc1Oc1ccccc1OCc1ccccc1 | 1.39 µg/mL (≈ 3.57 µM) |

| Structure (SMILES) | IC50 |
| --- | --- |
| CCc1ccc(Oc2ncccc2/C(=N/O)NC(C)COC)cc1 (stereo unspecified) | 2.17 µg/mL (≈ 6.59 µM) |
| NCCc1cn(Cc2coc(-c3ccc(Cl)cc3Cl)n2)cn1 | 4.34 µg/mL (≈ 12.9 µM) |
| COc1ccc(Oc2nc(C)ccc2/C(=N/O)NC2CCCC2)cc1 | 1.33 µg/mL (≈ 3.9 µM) |
| COc1cccc(-c2nc(CNC34C[C@H]5C[C@@H](C3)C[C@@H](C4)C5)co2)c1 | > 5 µg/mL |
| Cc1ccc(/C(=N/O)NCC2CCCO2)c(Oc2cc(Cl)ccc2Cl)n1 (stereo unspecified) | > 5 µg/mL |
| CC(C)(C)CNCc1coc(-c2ccc(C(C)(C)C)cc2)n1 | 1.62 µg/mL (≈ 5.39 µM) |
| CSCCN/C(=N\O)c1cccnc1Oc1c(F)cccc1F | 4.81 µg/mL (≈ 14.2 µM) |
| COc1cccc(-c2nc(Cn3ccnc3C=O)co2)c1 | > 5 µg/mL |
| O/N=C(\NC1CCCCC1)c1ccc(Oc2cc(Cl)ccc2Cl)nc1 | 1.3 µg/mL (≈ 3.42 µM) |
| O/N=C(\NC1CCc2ccccc21)c1cccnc1Oc1c(F)cccc1F (stereo unspecified) | 1.7 µg/mL (≈ 4.46 µM) |
| CC1CCC(C)N1/C(=N\O)c1cccnc1OCC(C)(C)C (stereo unspecified) | 1.25 µg/mL (≈ 4.09 µM) |
| COc1ccc(Oc2ncccc2/C(=N/O)NCc2cc(C)cc(C)c2)cc1 | 2.32 µg/mL (≈ 6.15 µM) |
| CCOc1ccccc1CN/C(=N\O)c1cccnc1Oc1cc(Cl)ccc1Cl | 0.66 µg/mL (≈ 1.53 µM) |
| O/N=C(/c1cccnc1Oc1cccc(C(F)(F)F)c1)N1CCN(C2CCCC2)CC1 | 2.33 µg/mL (≈ 5.36 µM) |
| Cc1ccc(/C(=N/O)NCC(C)(C)C)c(Oc2cccc(F)c2)n1 | 0.45 µg/mL (≈ 1.36 µM) |
| COc1ccc(Oc2ncccc2/C(=N/O)NCc2ccccc2)cc1 | 3.01 µg/mL (≈ 8.62 µM) |
| COc1ccc(-c2nc(CNC[C@@H]3CC[C@H]4C[C@@H]3C4(C)C)co2)cc1 | 1.31 µg/mL (≈ 3.85 µM) |
| C[C@@H]1C(NCc2coc(-c3ccccc3Br)n2)C[C@H]2C[C@@H]1C2(C)C (stereo partly specified) | 1.22 µg/mL (≈ 3.13 µM) |
| Cc1cccc(Oc2nc(C)ccc2/C(=N/O)NC2CCCCC2)c1 | 1.24 µg/mL (≈ 3.65 µM) |
| Cc1ccc(-c2nc(CNC34C[C@H]5C[C@@H](C3)C[C@@H](C4)C5)co2)cc1 | 3.86 µg/mL (≈ 12 µM) |
| O/N=C(\NCc1cccs1)c1cccnc1Oc1ccc2oc3ccccc3c2c1 | 2.45 µg/mL (≈ 5.9 µM) |
| CCN(CC)CCCNCc1coc(-c2cccc(C)c2)n1 | 3.36 µg/mL (≈ 11.1 µM) |
| COCCN/C(=N\O)c1cccnc1Oc1ccc(C)c2c1CCC2 | 1.77 µg/mL (≈ 5.18 µM) |
| O/N=C(\NC1CCCC1)c1ccc(Oc2ccc(Cl)cc2)nc1 | 1.32 µg/mL (≈ 3.98 µM) |
